Several values for one entry are separate records, joined by “and”; a condition that tells them apart may be missing. Identical values can stand only once.
Tests used:
[1] = tested on: A/Aichi/2/68 (H3N2) influenza virus; assay: Virus titration in lung tissue of infected mice (CAM fragments, hemagglutination reaction); assay type: in vivo, white mice; settings: 3rd day
[2] = Concentration of diindolylmethane in volunteers' plasma after oral administration; assay type: in vivo; settings: same dosage; range of concentrations approximately 300 ng/ml
Protocol: In all the clinical studies, pharmacokinetics comparison was made between the DIM preparation of the invention on the basis of A-type fish oil with the concentration 1-10% of preparation, the DIM preparation on the basis of Omega 3 and the crystalline DIM in the same dosages. […] The maximum DIM concentration in blood was observed two hours after the administration of preparations and achieved approximately 300 ng/ml.

[3] = tested on: A/Aichi/2/68 (H3N2) influenza virus; assay: Experimental lethal influenza infection in mice: mortality, average life, protection index; assay type: in vivo, white mice; settings: for Average life / Protection index, % / total mortality (number of dead/infected): reference preparation, dose not given; for total mortality (number of dead/infected): day 15
[4] = tested on: A/Aichi/2/68 (H3N2) influenza virus; assay: Surface of chronic postinfluenzal pneumonia foci in lungs of surviving mice; assay type: in vivo, white mice; settings: for Surface of chronic pneumonia foci (% of total surface of the lung surface): reference preparation, dose not given, survivors day 15
Protocol: The animals that survived to the 15th day after infection were autopsied and their lungs were studied macroscopically. Visual evaluation was carried out of the surface of chronic foci of postinfluenzal pneumonia remaining in the lung tissue of mice after the acute stage of the influenza infection within the entire life of the animal. The surface of the lesion foci was expressed in percentage to the entire lung surface.

SMILES | Infectious titer of the influenza virus (lg EID50) in lungs ([1]; 60 mg/kg orally, virus dosage 1, group average) | Infectious titer of the influenza virus (lg EID50) in lungs ([1]; 60 mg/kg orally, virus dosage 1, individual animals) | Infectious titer of the influenza virus (lg EID50) in lungs ([1]; 60 mg/kg orally, virus dosage 2, group average) | Infectious titer of the influenza virus (lg EID50) in lungs ([1]; 60 mg/kg orally, virus dosage 2, individual animals) | detection of DIM in the patients' plasma [2] | survival of infected animals (Fig. 2) ([3]; virus dosage 10 LD50) | Infectious titer of the influenza virus (lg EID50) in lungs ([1]; 50 mg/kg orally, virus dosage 1, group average) | Infectious titer of the influenza virus (lg EID50) in lungs ([1]; 50 mg/kg orally, virus dosage 1, individual animals) | Infectious titer of the influenza virus (lg EID50) in lungs ([1]; 50 mg/kg orally, virus dosage 2, group average) | Infectious titer of the influenza virus (lg EID50) in lungs ([1]; 50 mg/kg orally, virus dosage 2, individual animals) | effect on the surface of chronic pneumonia foci [4] | Surface of chronic pneumonia foci (% of total surface of the lung surface) ([4]; viral dosage 1 LD50) | Surface of chronic pneumonia foci (% of total surface of the lung surface) ([4]; viral dosage 10 LD50) | Average life ([3]; virus dosage 1 LD50) | Protection index, % ([3]; virus dosage 1 LD50) | total mortality (number of dead/infected) ([3]; virus dosage 1 LD50) | Average life ([3]; virus dosage 10 LD50) | Protection index, % ([3]; virus dosage 10 LD50) | total mortality (number of dead/infected) ([3]; virus dosage 10 LD50) | protection index ([3]; text summary over both virus dosages)
c1ccc2c(Cc3c[nH]c4ccccc34)c[nH]c2c1 [crystalline DIM, 3,3-diindolylmethane] | 3.8±0.17 lg EID50 | 4.0 lg EID50 (2×) and 3.5 lg EID50 | 4.5±0.29 lg EID50 | 5.0 lg EID50 and 4.0 lg EID50 and 4.5 lg EID50 | did not enable one to discover it in this range of concentrations | had no practical influence on the survival |  |  |  |  |  |  |  |  |  |  |  |  |  | 
CC(N)C12CC3CC(CC(C3)C1)C2 (centres unmarked) [rimantadine] |  |  |  |  |  |  | 2.3±0.17 lg EID50 | 2.0 lg EID50 and 3.0 lg EID50 and 2.5 lg EID50 | 2.7±0.17 lg EID50 | 2.5 lg EID50 (2×) and 3.0 lg EID50 | reduced this index for each infecting dosage | 31±11.8% | 27±6.8% | 14.4 days | 80% | 1/10 | 13.9 days | 78% | 2/10 | 78-80%

Reference: patent publication EP3017816A2, “DIINDOLYLMETHANE-BASED MEDICINAL AGENT AND USE THEREOF TO TREAT INFLUENZA AND VIRAL RESPIRATORY INFECTIONS” (Kiselev, Vsevolod Ivanovich, priority 2013, dated 2014)
